Experimental data taken from patent US9676782B2, “Substituted pyrazolo[1,5-a]pyrazines as negative allosteric modulators of metabotropic glutamate receptor 3” (Vanderbilt University, priority 2014, dated 2017).
Read-outs that look alike come from different tables or passages of the source.

Legend:
rat mGlu3 = rat mGlu3 (Rattus norvegicus (Rat), UniProt P31422); experiment: mGlu3 Ca2+ flux assay; assay type: cell-based; conditions: for IC50: NAM potency, decrease of glutamate EC80 response, >30,000 = no measurable activity, >10,000 = no plateau, read-out: rat mGlu3 IC50; for remaining activity at 30 µM: amplitude of response at 30 μM test compound as % of maximal response to glutamate, read-out: rat mGlu3 Glu max (%)
In short: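 This calcium mobilization assay used rat mGlu3 cells cultured overnight (37° C., 5% CO2) and read on the FDSS7000 after a 10 minute room-temperature incubation in 20 μL assay buffer. Each of 360 readings per well was divided by its initial value (F/F0). Potency came from fitting normalized responses against log concentration with an unconstrained 4 parameter logistic equation, weighting triplicate points equally.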

rat mGlu5 = rat mGlu5 (Rattus norvegicus (Rat), UniProt P31424); experiment: mGlu5 Ca2+ flux assay; assay type: cell-based; conditions: for Fold selectivity (mGlu3 vs. mGlu5): ratio of rat mGlu5 EC50 or IC50 to rat mGlu3 IC50; for Emax at 30 µM: read-out: rat mGlu5 Glu max (%)
In short: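 Ca2+ flux read kinetically (FDSS7000) after overnight culture at 37° C/5% CO2 and a 5 min room-temperature buffer step following dye removal. Signals expressed per well as F/F0 and normalized to peak glutamate response; EC50 fitted by free 4-parameter logistic, three replicates per concentration equally weighted.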

[1] = read-out: rat mGlu5 EC50 or IC50
[2] = PAM, amplitude of response at 30 μM test compound as % of maximal response to glutamate

Chain of rat mGlu3 (P31422 23-879): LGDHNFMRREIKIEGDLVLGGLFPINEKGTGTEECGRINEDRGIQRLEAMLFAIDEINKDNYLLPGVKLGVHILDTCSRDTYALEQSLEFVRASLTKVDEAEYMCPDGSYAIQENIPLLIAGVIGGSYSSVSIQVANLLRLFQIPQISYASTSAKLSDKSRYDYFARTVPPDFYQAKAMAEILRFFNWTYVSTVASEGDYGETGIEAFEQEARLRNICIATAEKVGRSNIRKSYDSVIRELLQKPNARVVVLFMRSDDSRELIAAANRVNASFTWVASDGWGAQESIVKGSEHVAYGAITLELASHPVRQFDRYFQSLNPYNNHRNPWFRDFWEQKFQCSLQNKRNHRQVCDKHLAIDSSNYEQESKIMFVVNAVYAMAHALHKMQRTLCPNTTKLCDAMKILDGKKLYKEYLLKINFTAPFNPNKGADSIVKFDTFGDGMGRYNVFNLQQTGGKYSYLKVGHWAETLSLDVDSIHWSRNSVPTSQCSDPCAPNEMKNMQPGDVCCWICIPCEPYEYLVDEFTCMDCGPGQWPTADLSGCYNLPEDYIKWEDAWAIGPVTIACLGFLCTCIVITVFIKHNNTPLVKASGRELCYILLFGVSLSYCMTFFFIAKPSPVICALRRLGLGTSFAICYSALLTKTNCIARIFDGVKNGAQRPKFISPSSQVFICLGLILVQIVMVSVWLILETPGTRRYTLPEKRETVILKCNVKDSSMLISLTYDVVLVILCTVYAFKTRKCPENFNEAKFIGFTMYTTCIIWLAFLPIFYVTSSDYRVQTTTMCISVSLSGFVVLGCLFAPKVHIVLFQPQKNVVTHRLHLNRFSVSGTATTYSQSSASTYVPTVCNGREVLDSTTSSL
Chain of rat mGlu5 (P31424 21-1203): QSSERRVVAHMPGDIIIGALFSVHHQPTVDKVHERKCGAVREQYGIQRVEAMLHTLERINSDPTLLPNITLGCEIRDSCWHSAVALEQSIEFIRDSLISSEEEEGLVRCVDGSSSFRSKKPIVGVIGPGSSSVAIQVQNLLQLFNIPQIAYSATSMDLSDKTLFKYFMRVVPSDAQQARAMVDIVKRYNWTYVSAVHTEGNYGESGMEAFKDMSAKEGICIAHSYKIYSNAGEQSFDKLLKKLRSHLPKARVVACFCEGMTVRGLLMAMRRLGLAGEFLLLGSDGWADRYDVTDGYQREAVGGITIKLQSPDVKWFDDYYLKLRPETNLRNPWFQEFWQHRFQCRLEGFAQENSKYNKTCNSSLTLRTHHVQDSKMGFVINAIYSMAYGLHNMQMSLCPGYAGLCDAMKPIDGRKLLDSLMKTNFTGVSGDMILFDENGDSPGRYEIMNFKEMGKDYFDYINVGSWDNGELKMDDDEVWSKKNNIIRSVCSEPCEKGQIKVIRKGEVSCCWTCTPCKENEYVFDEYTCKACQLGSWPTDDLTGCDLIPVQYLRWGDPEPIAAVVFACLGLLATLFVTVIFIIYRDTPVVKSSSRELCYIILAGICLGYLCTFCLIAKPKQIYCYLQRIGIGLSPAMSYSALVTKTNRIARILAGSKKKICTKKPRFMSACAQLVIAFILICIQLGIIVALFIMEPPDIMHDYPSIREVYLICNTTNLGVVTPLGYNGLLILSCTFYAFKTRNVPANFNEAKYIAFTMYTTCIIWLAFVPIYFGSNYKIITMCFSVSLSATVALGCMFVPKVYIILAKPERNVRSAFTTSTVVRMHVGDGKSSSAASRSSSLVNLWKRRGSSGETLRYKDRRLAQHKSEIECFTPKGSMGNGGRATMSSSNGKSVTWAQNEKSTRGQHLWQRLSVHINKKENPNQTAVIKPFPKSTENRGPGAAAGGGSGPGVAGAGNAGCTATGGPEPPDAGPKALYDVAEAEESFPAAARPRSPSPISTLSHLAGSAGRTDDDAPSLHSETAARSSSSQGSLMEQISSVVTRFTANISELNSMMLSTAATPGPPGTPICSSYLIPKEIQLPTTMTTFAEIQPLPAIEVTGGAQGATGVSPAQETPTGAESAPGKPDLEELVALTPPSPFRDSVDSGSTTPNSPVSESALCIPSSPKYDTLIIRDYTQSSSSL

`COc1ccc(NCc2cc3n(n2)CCN(c2ccc(Cl)cc2)C3=O)cc1` [Compound 81, 5-(4-chlorophenyl)-2-(((4-methoxyphenyl)amino)methyl)-6,7-dihydropyrazolo[1,5-a]pyrazin-4(5H)-one] was tested, and the IC50 (rat mGlu3) was 1.36 µM, the remaining activity at 30 µM (rat mGlu3) was 15.4% and the “Fold selectivity (mGlu3 vs. mGlu5)” value (rat mGlu5) was greater than 22. The EC50 (rat mGlu5; [1]) was greater than 30 µM.
In the case of `CN(Cc1cc2n(n1)CCN(c1ccc(F)cc1)C2=O)c1ccccc1` [Compound 82, 5-(4-fluorophenyl)-2-((methyl(phenyl)amino)methyl)-6,7-dihydropyrazolo[1,5-a]pyrazin-4(5H)-one], the IC50 (rat mGlu3) is reported as 1.22 µM, the remaining activity at 30 µM (rat mGlu3) is reported as 1.01% and the “Fold selectivity (mGlu3 vs. mGlu5)” value (rat mGlu5) is reported as greater than 24. It also gave an EC50 (rat mGlu5; [1]) greater than 30 µM.
`CN(Cc1cc2n(n1)CCN(c1ccc(F)cc1)C2=O)c1ccccc1F` [Compound 83, 5-(4-fluorophenyl)-2-(((2-fluorophenyl)(methyl)amino)methyl)-6,7-dihydropyrazolo[1,5-a]pyrazin-4(5H)-one] was tested, and the IC50 (rat mGlu3) was 0.876 µM, the remaining activity at 30 µM (rat mGlu3) was -0.98% and the “Fold selectivity (mGlu3 vs. mGlu5)” value (rat mGlu5) was greater than 34. It also gave an EC50 (rat mGlu5; [1]) greater than 30 µM.
`CN(Cc1cc2n(n1)CCN(c1ccc(F)cc1)C2=O)c1ccccc1Cl` [Compound 84, 2-(((2-chlorophenyl)(methyl)amino)methyl)-5-(4-fluorophenyl)-6,7-dihydropyrazolo[1,5-a]pyrazin-4(5H)-one] gave an IC50 (rat mGlu3) of 1.86 µM, a remaining activity at 30 µM (rat mGlu3) of 0.82% and an IC50 (rat mGlu5; compound noted as NAM or partial antagonist (PAnt) at mGlu5, glutamate EC80, read-out: rat mGlu5 EC50 or IC50) greater than 10 µM. For the same compound, the Emax at 30 µM (rat mGlu5; compound noted as NAM or partial antagonist (PAnt) at mGlu5, response at 30 μM as % of maximal glutamate response) was 73.4% and the “Fold selectivity (mGlu3 vs. mGlu5)” value (rat mGlu5) was greater than 5.3.
With `COc1ccccc1N(C)Cc1cc2n(n1)CCN(c1ccc(F)cc1)C2=O` [Compound 85, 5-(4-fluorophenyl)-2-(((2-methoxyphenyl)(methyl)amino)methyl)-6,7-dihydropyrazolo[1,5-a]pyrazin-4(5H)-one] the IC50 (rat mGlu3) was 9.48 µM, the remaining activity at 30 µM (rat mGlu3) was -7.96% and the “Fold selectivity (mGlu3 vs. mGlu5)” value (rat mGlu5) was greater than 3.1. For the same compound, the EC50 (rat mGlu5; [1]) was greater than 30 µM.
`CN(Cc1cc2n(n1)CCN(c1ccc(F)cc1)C2=O)c1cccc(F)c1` [Compound 86, 5-(4-fluorophenyl)-2-(((3-fluorophenyl)(methyl)amino)methyl)-6,7-dihydropyrazolo[1,5-a]pyrazin-4(5H)-one] showed an IC50 (rat mGlu3) of 0.594 µM, a remaining activity at 30 µM (rat mGlu3) of 1.68% and an Emax at 30 µM (rat mGlu5; [2]) of 110%. For the same compound, the “Fold selectivity (mGlu3 vs. mGlu5)” value (rat mGlu5) was 13.06 and the EC50 (rat mGlu5; [1]) was 7.76 µM.
With `CN(Cc1cc2n(n1)CCN(c1ccc(F)cc1)C2=O)c1cccc(Cl)c1` [Compound 87, 2-(((3-chlorophenyl)(methyl)amino)methyl)-5-(4-fluorophenyl)-6,7-dihydropyrazolo[1,5-a]pyrazin-4(5H)-one] the IC50 (rat mGlu3) was 0.805 µM, the remaining activity at 30 µM (rat mGlu3) was 0.71% and the Emax at 30 µM (rat mGlu5; [2]) was 41.9%. The “Fold selectivity (mGlu3 vs. mGlu5)” value (rat mGlu5) was greater than 12 and the EC50 (rat mGlu5; [1]) was greater than 10 µM.
With `COc1cccc(N(C)Cc2cc3n(n2)CCN(c2ccc(F)cc2)C3=O)c1` [Compound 88, 5-(4-fluorophenyl)-2-(((3-methoxyphenyl)(methyl)amino)methyl)-6,7-dihydropyrazolo[1,5-a]pyrazin-4(5H)-one] the IC50 (rat mGlu3) was 1.02 µM, the remaining activity at 30 µM (rat mGlu3) was 0.55% and the “Fold selectivity (mGlu3 vs. mGlu5)” value (rat mGlu5) was greater than 29. For the same compound, the EC50 (rat mGlu5; [1]) was greater than 30 µM.
In the case of `CN(Cc1cc2n(n1)CCN(c1ccc(F)cc1)C2=O)c1ccc(F)cc1` [Compound 89, 5-(4-fluorophenyl)-2-(((4-fluorophenyl)(methyl)amino)methyl)-6,7-dihydropyrazolo[1,5-a]pyrazin-4(5H)-one], the IC50 (rat mGlu3) is reported as 0.467 µM, the remaining activity at 30 µM (rat mGlu3) is reported as 1.29% and the “Fold selectivity (mGlu3 vs. mGlu5)” value (rat mGlu5) is reported as greater than 64. For the same compound, the EC50 (rat mGlu5; [1]) was greater than 30 µM.
`CN(Cc1cc2n(n1)CCN(c1ccc(F)cc1)C2=O)c1ccc(Cl)cc1` [Compound 90, 2-(((4-chlorophenyl)(methyl)amino)methyl)-5-(4-fluorophenyl)-6,7-dihydropyrazolo[1,5-a]pyrazin-4(5H)-one] showed an IC50 (rat mGlu3) of 0.885 µM, a remaining activity at 30 µM (rat mGlu3) of 1.4% and an Emax at 30 µM (rat mGlu5; [2]) of 87.3%. For the same compound, the “Fold selectivity (mGlu3 vs. mGlu5)” value (rat mGlu5) was 5.08 and the EC50 (rat mGlu5; [1]) was 4.5 µM.
In the case of `CN(Cc1cc2n(n1)CCN(c1ccc(F)cc1)C2=O)c1ccc(Br)cc1` [Compound 91, 2-(((4-bromophenyl)(methyl)amino)methyl)-5-(4-fluorophenyl)-6,7-dihydropyrazolo[1,5-a]pyrazin-4(5H)-one], the IC50 (rat mGlu3) is reported as 0.592 µM, the remaining activity at 30 µM (rat mGlu3) is reported as 2.53% and the “Fold selectivity (mGlu3 vs. mGlu5)” value (rat mGlu5) is reported as greater than 50. It also gave an EC50 (rat mGlu5; [1]) greater than 30 µM.
`CN(Cc1cc2n(n1)CCN(c1ccc(F)cc1)C2=O)c1ccc(C#N)cc1` [Compound 93, 4-(((5-(4-fluorophenyl)-4-oxo-4,5,6,7-tetrahydropyrazolo[1,5-a]pyrazin-2-yl)methyl)(methyl)amino)benzonitrile] was tested, and the IC50 (rat mGlu3) was 1.13 µM, the remaining activity at 30 µM (rat mGlu3) was 1.47% and the Emax at 30 µM (rat mGlu5; [2]) was 57.2%. The “Fold selectivity (mGlu3 vs. mGlu5)” value (rat mGlu5) was greater than 8.8 and the EC50 (rat mGlu5; [1]) was greater than 10 µM.
Work on `CN(Cc1cc2n(n1)CCN(c1ccc(F)cc1)C2=O)c1cc(F)cc(F)c1` [Compound 94, 2-(((3,5-difluorophenyl)(methyl)amino)methyl)-5-(4-fluorophenyl)-6,7-dihydropyrazolo[1,5-a]pyrazin-4(5H)-one] yielded an IC50 (rat mGlu3) of 0.66 µM, a remaining activity at 30 µM (rat mGlu3) of 1.58% and an Emax at 30 µM (rat mGlu5; [2]) of 29.9%. The “Fold selectivity (mGlu3 vs. mGlu5)” value (rat mGlu5) was greater than 15 and the EC50 (rat mGlu5; [1]) was greater than 10 µM.
With `O=C1c2cc(CNc3ccc(OC(F)F)cc3F)nn2CCN1c1cccc(F)c1` [Compound 95, 2-(((4-(Difluoromethoxy)-2-fluorophenyl)amino)methyl)-5-(3-fluorophenyl)-6,7-dihydropyrazolo[1,5-a]pyrazin-4(5H)-one] the IC50 (rat mGlu3) was 0.588 µM, the remaining activity at 30 µM (rat mGlu3) was 3.43% and the Emax at 30 µM (rat mGlu5; [2]) was 31.1%. The “Fold selectivity (mGlu3 vs. mGlu5)” value (rat mGlu5) was greater than 17 and the EC50 (rat mGlu5; [1]) was greater than 10 µM.
With `COc1ccc(N(C)Cc2cc3n(n2)CCN(c2ccc(Cl)cc2)C3=O)cc1` [Compound 96, 5-(4-chlorophenyl)-2-(((4-methoxyphenyl)(methyl)amino)methyl)-6,7-dihydropyrazolo[1,5-a]pyrazin-4(5H)-one] the IC50 (rat mGlu3) was 0.585 µM, the remaining activity at 30 µM (rat mGlu3) was 1.61% and the “Fold selectivity (mGlu3 vs. mGlu5)” value (rat mGlu5) was greater than 51. The EC50 (rat mGlu5; [1]) was greater than 30 µM.
For `COc1ccc(N(C)Cc2cc3n(n2)CCN(c2ccc(F)c(F)c2)C3=O)cc1` [Compound 97, 5-(3,4-difluorophenyl)-2-(((4-methoxyphenyl)(methyl)amino)methyl)-6,7-dihydropyrazolo[1,5-a]pyrazin-4(5H)-one], the IC50 (rat mGlu3) was 1.08 ± 0.24 µM, the remaining activity at 30 µM (rat mGlu3) was 1.74 ± 0.56% and the “Fold selectivity (mGlu3 vs. mGlu5)” value (rat mGlu5) was greater than 27. The EC50 (rat mGlu5; [1]) was greater than 30 µM.
For `COc1ccc(N(C)Cc2cc3n(n2)CCN(c2cccc(Cl)c2)C3=O)cc1` [Compound 98, 5-(3-chlorophenyl)-2-(((4-methoxyphenyl)(methyl)amino)methyl)-6,7-dihydropyrazolo[1,5-a]pyrazin-4(5H)-one], the IC50 (rat mGlu3) was 0.668 µM, the remaining activity at 30 µM (rat mGlu3) was 1.53% and the “Fold selectivity (mGlu3 vs. mGlu5)” value (rat mGlu5) was greater than 44. It also gave an EC50 (rat mGlu5; [1]) greater than 30 µM.
For `COc1ccc(N(C)Cc2cc3n(n2)CCN(c2ccc(C)cc2)C3=O)cc1` [Compound 99, 2-(((4-methoxyphenyl)(methyl)amino)methyl)-5-(p-tolyl)-6,7-dihydropyrazolo[1,5-a]pyrazin-4(5H)-one], the IC50 (rat mGlu3) was 0.675 µM, the remaining activity at 30 µM (rat mGlu3) was 1.2% and the “Fold selectivity (mGlu3 vs. mGlu5)” value (rat mGlu5) was greater than 44. For the same compound, the EC50 (rat mGlu5; [1]) was greater than 30 µM.
For `COc1ccc(N(C)Cc2cc3n(n2)CCN(c2ccccc2Cl)C3=O)cc1` [Compound 100, 5-(2-chlorophenyl)-2-(((4-methoxyphenyl)(methyl)amino)methyl)-6,7-dihydropyrazolo[1,5-a]pyrazin-4(5H)-one], the IC50 (rat mGlu3) was 0.777 µM, the remaining activity at 30 µM (rat mGlu3) was 1.8% and the “Fold selectivity (mGlu3 vs. mGlu5)” value (rat mGlu5) was greater than 38. It also gave an EC50 (rat mGlu5; [1]) greater than 30 µM.
